From patent publication US20110104177A1, “HISTONE DEACETYLASE INHIBITORS, COMBINATION THERAPIES AND METHODS OF USE” (THE JOHNS HOPKINS UNIVERSITY, priority 2006, published 2011)
pIC50: −log10 of the molar value.

Columns and labels:
[1] = target: T1, SIRT1 (Homo sapiens, UniProt Q96EB6); assay: SIRT1 p53-382 IC50 assay; format: biochemical
T1 sequence (Q96EB6 1-747): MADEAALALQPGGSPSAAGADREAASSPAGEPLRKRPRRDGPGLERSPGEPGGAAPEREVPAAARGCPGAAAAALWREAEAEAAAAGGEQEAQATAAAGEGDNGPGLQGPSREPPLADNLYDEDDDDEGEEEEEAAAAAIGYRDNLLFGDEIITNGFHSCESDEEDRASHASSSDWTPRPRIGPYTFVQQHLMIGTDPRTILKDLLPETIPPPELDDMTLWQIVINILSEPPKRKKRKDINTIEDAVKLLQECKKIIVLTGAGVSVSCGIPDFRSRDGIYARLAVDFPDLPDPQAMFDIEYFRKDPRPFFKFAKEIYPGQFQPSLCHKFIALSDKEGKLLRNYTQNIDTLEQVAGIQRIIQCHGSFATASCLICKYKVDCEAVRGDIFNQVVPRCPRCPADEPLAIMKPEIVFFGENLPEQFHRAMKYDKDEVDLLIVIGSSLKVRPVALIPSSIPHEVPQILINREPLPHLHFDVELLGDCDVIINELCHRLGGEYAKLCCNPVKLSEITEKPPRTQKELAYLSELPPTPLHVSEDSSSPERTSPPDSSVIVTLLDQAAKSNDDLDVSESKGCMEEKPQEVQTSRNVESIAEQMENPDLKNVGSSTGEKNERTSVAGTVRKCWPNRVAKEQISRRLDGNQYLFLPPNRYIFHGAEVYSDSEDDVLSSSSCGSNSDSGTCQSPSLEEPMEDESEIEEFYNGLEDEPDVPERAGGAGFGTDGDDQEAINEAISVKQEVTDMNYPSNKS

[2] = test system: β-catenin-responsive TCF reporter (Wnt pathway) in RKO cells; assay: β-catenin-responsive TCF reporter assay; format: cell-based, human; conditions: 700 μM SPT for 24 hours
Procedure: The panels of FIG. 6. […] Error bars indicate standard deviation from the average of three experiments. FIG. 6(B) provides the results obtained from experiments in which RKO cells were transfected with 500 ng of pGL3-OT, a TCF-LEF-responsive reporter, or pGL3-OF, a negative control with a mutated TCF-LEF binding site in combination with 10 ng of pRL-CMV vector. Twenty-four hours post-transfection, cells were treated with either vehicle (DMSO) control or with 700 μM SPT for 24 hours. Firefly luciferase activity was measured and normalized to the Renilla luciferase activities. The experiments shown in FIG. 6(C) were performed as described in FIG. 6(A), in which pooled populations of MDA-MB-231 cells stably expressing RNAi-2 or RNAi-3 were harvested, protein concentrations were determined, and Western blot analysis was performed. An antibody that specifically recognizes the unphosphorylated (active) form of β-catenin was used, and on the same blot, β-actin was probed to ensure equal loading. […]
Reporter assays were performed as described previously using the β-catenin-responsive TCF reporter and the cyclin D1 reporter. […] According to the manufacturer's instructions, Firefly luciferase activity was measured via a luminometer (BD Biosciences) and normalized to the Renilla luciferase activities by using the Dual Luciferase Reporter System (Promega, Madison, Wis., United States).

[3] = test system: cyclin-D1 promoter reporter in RKO cells; assay: β-catenin-responsive cyclin-D1 promoter reporter assay; format: cell-based, human; conditions: SPT treatment, data not shown
Procedure: Reporter assays were performed as described previously using the β-catenin-responsive TCF reporter and the cyclin D1 reporter. Briefly, prior to transfection, RKO cells were plated in six-well tissue culture dishes and grown until they reached 80%-90% confluence. Cells were transfected with 500 ng of pGL3-OT, a TCF-LEF-responsive reporter, or pGL3-OF, a negative control with a mutated TCF-LEF binding site in combination with 10 ng of pRL-CMV vector. Twenty-four hours post-transfection, cells were treated with either vehicle (DMSO) control or with 700 μM SPT for 24 hours. According to the manufacturer's instructions, Firefly luciferase activity was measured via a luminometer (BD Biosciences) and normalized to the Renilla luciferase activities by using the Dual Luciferase Reporter System (Promega, Madison, Wis., United States).

[4] = test system: SFRP1, SFRP2, E-cadherin, CRBP1 genes in MDA-MB-231 cells; assay: RT-PCR re-expression of silenced tumor suppressor genes in MDA-MB-231 cells; format: cell-based, human
Procedure: The panels of FIG. 2 are as follows. […] MDA-MB-231 cells were treated with 15 mM NIA or 300 μM SPT for 21 hours, RNA was isolated, and RT-PCR was performed with intron-spanning primers specific for the indicated genes. Control samples in which no reverse transcriptase was added were analyzed separately, and all were negative for amplification of the indicated genes. […] MDA-MB-231 cells were treated with either 50 nM Aza (+), 100 μM SPT (+) or with both Aza and SPT (++), and 34 hours later, RT-PCR was performed for the indicated genes as described in FIG. 2(A). […] MDA-MB-231 cells were treated with either 0, 50, 100, or 120 μM SPT alone for 34 hours, or the treatment was followed by treatment with 300 nM TSA for 3 hours prior to RNA isolation and RT-PCR analysis. […] MDA-MB-231 cells were infected with low titers of virus for shRNA specific for SIRT1. Aza (100 nM) was added 24 hours prior to RNA isolation, and RT-PCR analysis was performed for the genes SFRP 1, SFRP2, and GAPDH as described in FIG. 2(A). […] As shown in the left panel, MDA-MB-231 cells were infected with a control (vec) or mutant SIRT1 virus (HY), and RT-PCR was performed as described in FIG. 2(A). MDA-MB-231 cells were infected with low titers of pBabe or pBabe-SIRT1H363Y retrovirus and subsequently treated with 100 nM Aza for 24 hours or with 300 nM TSA for 3 hours prior to harvest, and RT-PCR was performed.
(§1) Cell culture and retroviral infection. MDA-MB-231, MCF7, HCT116, SW480 RKO, and Phoenix cells (ATCC, Rockville, Md., United States) were cultured in Dulbecco's modified Eagle's medium supplemented with 10% fetal bovine serum and 1% penicillin/streptomycin (Invitrogen, Carlsbad, Calif., United States). Retroviral infection was performed using either single or multiple rounds of infection. Briefly, Phoenix cells were transfected with either pBabe, pBabe-SIRT1H363Y, pSUPERretro, pSUPERretro-SIRT1-RNAi-1-3 (NM_012238 positions 410, 589, and 1091; Oligo Engine, Seattle, Wash., United States) using Lipofectamine 2000 (Invitrogen). After 48 h of transfection, the medium containing retrovirus was collected, filtered, and supplemented with Polybrene prior to infection of target cells (MDA-MB-231, MCF7, or HCT116). Infected cells were either harvested 24-48 hours later or subjected to selection with 2-3 μg/ml puromycin for a week prior to harvest and analysis.
(§2) RNA and protein preparation and analysis. Total RNA was extracted (Invitrogen) according to the manufacturer's instructions and subjected to reverse transcription followed by both quantitative real-time and semi-quantitative polymerase chain reaction. For quantitative real-time analyses, the QuantiTect SYBR Green PCR kit (Qiagen, Valencia, Calif., United States) was used and the amplification conditions consisted of an initial 10-minutes denaturation step at 95° C., followed by 40 cycles of denaturation at 95° C. for 15 s and annealing and extension for 30 seconds and 60 seconds, respectively. A BioRad iCycler was used (BioRad, Hercules, Calif., United States), and for quantitation the comparative cycle threshold (Ct) method was used, normalizing the Ct values for the indicated gene to the Ct values of GAPDH relative to a control sample. For conventional PCR, at least two independent sets of intron-spanning primers were used for the analysis of multiple genes, such as CRBP1, (NM_002899), E-cadherin, (L34545), SFRP1, (BC036503), SFRP2, (BC008666), and Gata-4 (L34357). For Western blots, cells stably expressing RNAi constructs were harvested in 50 mM Tris-HCl, 1% NP-40, 0.25% sodium deoxycholate, 150 mM NaCl, 50 mM sodium fluoride, 1 mM dithiothreitol, 1 mM AEBSF, 1× Complete protease inhibitor cocktail (Roche, Basel, Switzerland). Protein concentrations were measured by BCA (Pierce Biotechnology, Rockford, Ill., United States). […] On the same blot, β-actin (Sigma, St. Louis, Mo., United States) was probed to ensure equal loading.

[5] = test system: SFRP1 and SFRP2 genes in MCF7 cells; assay: RT-PCR re-expression of silenced tumor suppressor genes in MCF7 cells; format: cell-based, human; conditions: sirtuin inhibitors, data not shown
Procedure: as §1, §2

Row | pIC50 [1] | Compound | reduction in the activation of a β-catenin-responsive TCF reporter construct [2] | reduction in the activation of a β-catenin-responsive cyclin-D1 promoter reporter construct [3] | re-expression of the gene panel, single agent at low dose ([4]; Aza (50 nM) or SPT (50 μM) alone) | re-expression of epigenetically silenced, hypermethylated TSGs incl. CRBP1 ([4]; MDA-MB-231 cells, 15 mM NIA or 300 μM SPT for 21 hours) | re-expression of epigenetically silenced, hypermethylated TSGs [5]
1 | < 5.00 | O=C(NO)C1CCCc2c1[nH]c1ccc(Cl)cc21 (stereo not drawn) [Compound 7, 6-Chloro-2,3,4,9-tetrahydro-1H-carbazole-1-carboxylic acid hydroxyamide] |  |  |  |  | 
2 |  | O=C1CCc2c(ccc3ccccc23)O1 [SPT, splitomicin, reference compound] | 50% | 50% | ineffective as single agents | could cause the re-expression | could cause the re-expression
